According to patent publication US7879996B2, “Water soluble compounds” (priority 2007, dated 2011):

Assay: cationite (cation-exchanging) capacity
Type: physicochemical

- cationite capacities: 320-370 meqv/mmol
Substance: 2-([60] fullerene [1′,9′:3,4] cyclohexen-1-y1)-5,10,15,20-(tetra magnesium [(4-(N-(4-carboxy butyl) amino) phenyl 2,3-dicarboxylatel]) porphyrin iron (II) [PMC16]
